Tests used:
[1] = molecular target: T1, FGFR1(V561M)(h) (Homo sapiens, UniProt P11362, V561M); assay: Kinase panel; type: biochemical; details: read-out: % Inhibition
T1 construct: purchased Millipore KinaseProfiler

[2] = molecular target: T2, KDR(h) (Homo sapiens, UniProt P35968); assay: Kinase panel; type: biochemical; details: read-out: % Inhibition
T2 construct: purchased Millipore KinaseProfiler

[3] = molecular target: T3, PTK5(h) (Homo sapiens, UniProt P42685); assay: Kinase panel; type: biochemical; details: read-out: % Inhibition
T3 construct: purchased Millipore KinaseProfiler
T3 sequence (P42685 whole entry): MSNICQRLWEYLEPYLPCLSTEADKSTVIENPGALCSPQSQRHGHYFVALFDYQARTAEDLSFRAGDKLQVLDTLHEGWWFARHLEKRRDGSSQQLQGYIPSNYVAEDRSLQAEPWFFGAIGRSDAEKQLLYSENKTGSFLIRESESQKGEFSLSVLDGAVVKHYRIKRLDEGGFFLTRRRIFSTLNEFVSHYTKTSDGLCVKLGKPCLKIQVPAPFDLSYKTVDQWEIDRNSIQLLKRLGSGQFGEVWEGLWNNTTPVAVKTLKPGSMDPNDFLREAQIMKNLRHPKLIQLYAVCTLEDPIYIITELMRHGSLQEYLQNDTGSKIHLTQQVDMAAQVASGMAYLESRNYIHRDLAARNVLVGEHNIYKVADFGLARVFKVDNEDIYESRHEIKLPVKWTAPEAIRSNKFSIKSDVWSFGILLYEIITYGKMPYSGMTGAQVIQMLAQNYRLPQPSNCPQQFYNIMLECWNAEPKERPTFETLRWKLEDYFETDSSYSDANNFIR

[4] = system: hematological tumor cell lines; assay: 3-day proliferation assay (CellTiter-Glo); type: cell-based, human; details: for IC50: Homo sapiens
Procedure: Various tumor cell lines were obtained from different sources including; the American Type Cell Culture Collection, the Developmental Therapeutics Program, the National Cancer Institute, the German Resource Center for Biological Material and the European Collection of Animal Cell Cultures. Cell lines were typically grown in […] containing 10% FBS. Some cell lines were grown in media specified by the vendor. A 3-day proliferation assay using CellTiter-Glo (CTG, Promega) was performed to measure the growth inhibition by the compounds at 0–30 µM. Cell growth was determined relative to untreated (DMSO) controls. EC50's were calculated from inhibition curves using a 4- or 6-parameter fitting algorithm in the Assay Client application.

T1 sequence (P11362 22-822 V561M): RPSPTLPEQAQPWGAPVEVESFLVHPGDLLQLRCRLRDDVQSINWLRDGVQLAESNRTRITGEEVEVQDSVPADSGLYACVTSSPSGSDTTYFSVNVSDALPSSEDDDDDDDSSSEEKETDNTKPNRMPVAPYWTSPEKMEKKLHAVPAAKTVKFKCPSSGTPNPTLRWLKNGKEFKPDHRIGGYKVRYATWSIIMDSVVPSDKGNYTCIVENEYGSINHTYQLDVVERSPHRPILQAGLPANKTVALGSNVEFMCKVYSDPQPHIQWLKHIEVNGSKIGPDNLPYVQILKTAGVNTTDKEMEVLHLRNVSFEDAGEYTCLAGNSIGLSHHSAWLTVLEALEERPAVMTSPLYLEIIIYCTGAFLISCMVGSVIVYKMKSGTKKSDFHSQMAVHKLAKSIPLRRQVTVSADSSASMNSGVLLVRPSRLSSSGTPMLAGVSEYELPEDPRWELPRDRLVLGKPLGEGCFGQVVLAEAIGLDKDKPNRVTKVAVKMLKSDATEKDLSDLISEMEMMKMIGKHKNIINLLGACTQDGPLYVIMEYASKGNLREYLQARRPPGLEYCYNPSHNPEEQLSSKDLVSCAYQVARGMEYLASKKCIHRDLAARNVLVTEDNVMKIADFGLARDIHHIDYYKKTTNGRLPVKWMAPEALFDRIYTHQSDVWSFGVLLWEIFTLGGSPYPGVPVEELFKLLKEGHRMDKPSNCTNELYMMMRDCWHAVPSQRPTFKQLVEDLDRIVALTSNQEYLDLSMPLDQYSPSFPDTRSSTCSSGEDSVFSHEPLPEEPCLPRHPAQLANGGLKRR
T2 sequence (P35968 20-1356): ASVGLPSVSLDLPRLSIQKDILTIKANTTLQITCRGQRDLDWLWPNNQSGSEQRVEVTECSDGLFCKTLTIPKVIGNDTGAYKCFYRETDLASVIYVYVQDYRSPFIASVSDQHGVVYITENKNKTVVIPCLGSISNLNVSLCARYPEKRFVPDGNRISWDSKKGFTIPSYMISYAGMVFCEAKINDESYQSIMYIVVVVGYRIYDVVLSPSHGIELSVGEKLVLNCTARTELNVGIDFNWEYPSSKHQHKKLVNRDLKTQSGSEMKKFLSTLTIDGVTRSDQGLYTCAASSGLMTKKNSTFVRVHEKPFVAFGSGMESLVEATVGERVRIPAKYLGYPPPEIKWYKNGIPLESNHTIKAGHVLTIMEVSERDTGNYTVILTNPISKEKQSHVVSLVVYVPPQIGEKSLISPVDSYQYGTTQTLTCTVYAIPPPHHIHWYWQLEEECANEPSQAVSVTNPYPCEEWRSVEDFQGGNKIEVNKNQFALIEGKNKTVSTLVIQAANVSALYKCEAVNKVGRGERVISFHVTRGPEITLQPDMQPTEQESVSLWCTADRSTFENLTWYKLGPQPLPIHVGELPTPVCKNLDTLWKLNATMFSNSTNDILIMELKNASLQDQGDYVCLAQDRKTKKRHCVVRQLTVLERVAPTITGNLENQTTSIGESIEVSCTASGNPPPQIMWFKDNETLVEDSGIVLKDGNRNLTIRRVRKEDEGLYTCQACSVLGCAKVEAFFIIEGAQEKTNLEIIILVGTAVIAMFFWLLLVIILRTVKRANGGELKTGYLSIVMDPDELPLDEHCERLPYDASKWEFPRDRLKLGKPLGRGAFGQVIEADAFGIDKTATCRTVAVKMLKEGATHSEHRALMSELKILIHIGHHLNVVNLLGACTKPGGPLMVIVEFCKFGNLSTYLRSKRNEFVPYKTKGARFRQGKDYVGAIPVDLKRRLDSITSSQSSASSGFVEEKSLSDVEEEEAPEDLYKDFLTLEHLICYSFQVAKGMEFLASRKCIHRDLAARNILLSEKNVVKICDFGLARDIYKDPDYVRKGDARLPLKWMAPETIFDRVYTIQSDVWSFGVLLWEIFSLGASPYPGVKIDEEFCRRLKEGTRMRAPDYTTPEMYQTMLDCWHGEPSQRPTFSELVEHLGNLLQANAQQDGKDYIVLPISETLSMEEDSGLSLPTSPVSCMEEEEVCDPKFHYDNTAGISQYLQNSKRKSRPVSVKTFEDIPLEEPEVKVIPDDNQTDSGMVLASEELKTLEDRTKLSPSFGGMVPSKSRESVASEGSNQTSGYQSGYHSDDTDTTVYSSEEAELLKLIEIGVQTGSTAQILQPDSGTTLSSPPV

Structure (SMILES): Cn1ncc(Cl)c1-c1cc(C(=O)N[C@H](CN)Cc2ccc(F)c(F)c2)oc1Cl [GSK2141795]
- inhibition at 0.5 µM ([1]; 0.5 µM): 15%
- inhibition at 10 µM ([1]; 10 µM): 36%
- inhibition at 0.5 µM ([2]; 0.5 µM): -6%
- inhibition at 10 µM ([2]; 10 µM): -3%
- inhibition at 0.5 µM ([3]; 0.5 µM): 11%
- inhibition at 10 µM ([3]; 10 µM): 70%
- hematological cell lines sensitive (EC50<1 µM) ([4]; 112 cell lines, 3 days, CTG): 81%
- IC50 ([4]; 1A2, 1A2 cell line, Burkitt's Lymphoma, B Cell): 93 nM
- IC50 ([4]; 697 cell line, ALL, pre-B Cell): 300 nM
- IC50 ([4]; ARH-77, ARH77 cell line, Multiple Myeloma, B Cell): 155 nM
- IC50 ([4]; B-cell, BDCM cell line, AML, B Cell): 14 nM
- IC50 ([4]; B-cell, CESS cell line, AML, B Cell): 9 nM
- IC50 ([4]; B-cell, CRO-AP3 cell line, Primary Effusion Lymphoma (PEL), B Cell): 113 nM
- IC50 ([4]; B-cell, EHEB cell line, CLL, B Cell): 51 nM
- IC50 ([4]; B-cell, HKB-11 cell line, Burkitt's Lymphoma, B Cell): 52 nM
- IC50 ([4]; B-cell, HS-Sultan cell line, Burkitt's Lymphoma, B Cell): 226 nM
- IC50 ([4]; B-cell, KARPAS-231 cell line, ALL, B Cell): 36 nM
- IC50 ([4]; B-cell, MC/CAR cell line, Multiple Myeloma, B Cell): 40 nM
- IC50 ([4]; B-cell, MN60 cell line, ALL, B Cell): 653 nM
- IC50 ([4]; B-cell, Namalwa cell line, Burkitt's Lymphoma, B Cell): 300 nM
- IC50 ([4]; B-cell, SD-1 cell line, ALL, B Cell): 15 nM
- IC50 ([4]; B-cell, Tanoue cell line, ALL, B Cell): 1460 nM
- IC50 ([4]; BC1, BC1 cell line, Burkitt's Lymphoma, B Cell): 465 nM
- IC50 ([4]; BC-3, BC3 cell line, Burkitt's Lymphoma, B Cell): 3130 nM
- IC50 ([4]; BV-173, BV173 cell line, CML, pre-B Cell): 860 nM
- IC50 ([4]; CA46, CA46 cell line, Burkitt's Lymphoma, B Cell): 948 nM
- IC50 ([4]; CCRF-CEM, CCRFCEM cell line, ALL, T Cell): 146 nM
- IC50 ([4]; CCRF-SB, CCRFSB cell line, ALL, B Cell): 20 nM
- IC50 ([4]; CEM/C1, CEM/C1 cell line, ALL, T Cell): 30 nM
- IC50 ([4]; CEM/C2, CEM/C2 cell line, ALL, T Cell): 22 nM
- IC50 ([4]; CML-T1, CML-T1 cell line, CML, T Cell): 5230 nM
- IC50 ([4]; CRO-AP5, CRO-AP5 cell line, Primary Effusion Lymphoma (PEL), B Cell): 34 nM
- IC50 ([4]; DB, DB cell line, Non-Hodgkin's Lymphoma, B Cell): 5220 nM
- IC50 ([4]; DG-75, DG75 cell line, Burkitt's Lymphoma, B Cell): 14800 nM
- IC50 ([4]; DOHH-2, DOHH-2 cell line, Non-Hodgkin's Lymphoma, B Cell): 10.5 nM
- IC50 ([4]; Daudi, DAUDI cell line, Burkitt's Lymphoma, B Cell): 269 nM
- IC50 ([4]; EB1, EB1 cell line, Burkitt's Lymphoma, B Cell): 49 nM
- IC50 ([4]; EB2, EB2 cell line, Burkitt's Lymphoma, B Cell): 256 nM
- IC50 ([4]; EB-3, EB3 cell line, Burkitt's Lymphoma, B Cell): 1760 nM
- IC50 ([4]; EM-2, EM2 cell line, CML, Unspecified): 1650 nM
- IC50 ([4]; Farage cell line, Non-Hodgkin's Lymphoma, B Cell): 103 nM
- IC50 ([4]; GA-10, GA-10 cell line, Burkitt's Lymphoma, B Cell): 17 nM
- IC50 ([4]; GDM-1, GDM-1 cell line, AML, Monoblast): 3070 nM
- IC50 ([4]; HD-MY-Z cell line, Hodgkin's Lymphoma, Unspecified): 8290 nM
- IC50 ([4]; HEL 92.1.7, HEL92.1.7 cell line, AML, Erythroleukemia): 7760 nM
- IC50 ([4]; HH, HH cell line, Non-Hodgkin's Lymphoma (CTCL), T Cell): 85 nM
- IC50 ([4]; HL-60, HL-60 cell line, AML, Myeloblast): 3720 nM
- IC50 ([4]; HSB2, HSB2 cell line, ALL, T Cell): 576 nM
- IC50 ([4]; HT, HT cell line, Burkitt's Lymphoma, B Cell): 93 nM
- IC50 ([4]; HuT78, HuT78 cell line, Non-Hodgkin's Lymphoma (CTCL), T Cell): 147 nM
- IC50 ([4]; J.gamma1, J.Gamma-1 cell line, ALL, T Cell): 21 nM
- IC50 ([4]; JIYOYE, JIYOYE cell line, Burkitt's Lymphoma, B Cell): 536 nM
- IC50 ([4]; JM1, JM1 cell line, Burkitt's Lymphoma, pre-B Cell): 212 nM
- IC50 ([4]; JVM13, JVM13 cell line, CLL, B Cell): 84 nM
- IC50 ([4]; JVM-2, JVM2 cell line, CLL, B Cell): 13 nM
- IC50 ([4]; JVM-3, JVM-3 cell line, CLL, B Cell): 8480 nM
- IC50 ([4]; Jurkat, Jurkat cell line, ALL, T Cell): 17 nM
- IC50 ([4]; K562, K562 cell line, CML, Lymphoblast): 9780 nM
- IC50 ([4]; KG-1, KG-1 cell line, AML, B Cell): 281 nM
- IC50 ([4]; KU812, Ku812 cell line, CML, Basophilic Leukocyte): 72 nM
- IC50 ([4]; Kasumi 1, Kasumi-1 cell line, AML, Myeloblast): 22.3 nM
- IC50 ([4]; Kasumi-2 cell line, AML, Myeloblast): 457 nM
- IC50 ([4]; L-428, L428 cell line, Hodgkin's Lymphoma, Unspecified): 1.2 nM
- IC50 ([4]; MC116, MC116 cell line, Burkitt's Lymphoma, B Cell): 320 nM
- IC50 ([4]; MEC1, MEC1 cell line, CLL, B Cell): 168 nM
- IC50 ([4]; MEC2, MEC-2 cell line, CLL, B Cell): 112 nM
- IC50 ([4]; MEG-01, MEG01 cell line, CML, Megakaryoblastic): 285 nM
- IC50 ([4]; MHH-CALL-3 cell line, ALL, pre-B Cell): 26 nM
- IC50 ([4]; MHH-PREB-1, MHH-PREB-1 cell line, Non-Hodgkin's Lymphoma, B Cell): 932 nM
- IC50 ([4]; ML-2, ML-2 cell line, AML, Myelomonocytic): 399 nM
- IC50 ([4]; MOLT-3, MOLT3 cell line, ALL, T Cell): 19 nM
- IC50 ([4]; MOLT-4, Molt-4 cell line, ALL, T Cell): 10 nM
- IC50 ([4]; MOLT-16, MOLT16 cell line, ALL, T Cell): 15 nM
- IC50 ([4]; MV4-11, MV-4-11 cell line, AML, Myelomonocytic): 875 nM
- IC50 ([4]; NALM-6, Nalm-6 cell line, ALL, pre-B Cell): 74 nM
- IC50 ([4]; NC-37, NC-37 cell line, Burkitt's Lymphoma, B Cell): 752 nM
- IC50 ([4]; NOMO-1, Nomo-1 cell line, AML, B Cell): 48 nM
- IC50 ([4]; NU-DHL-1, NU-DHL-1 cell line, Burkitt's Lymphoma, B Cell): 16 nM
- IC50 ([4]; OCI-AML2, OCI-AML-2 cell line, AML, B Cell): 18100 nM
- IC50 ([4]; OCI-AML-3, OCI-AML-3 cell line, AML, B Cell): 28 nM
- IC50 ([4]; OCI-M1, OCI-M1 cell line, AML, B Cell): 644 nM
- IC50 ([4]; P3HR-1, P3HR-1 cell line, Burkitt's Lymphoma, B Cell): 17 nM
- IC50 ([4]; PLB-985, PLB985 cell line, AML, B Cell): 1140 nM
- IC50 ([4]; Pfeiffer, Pfeiffer cell line, Non-Hodgkin's Lymphoma, B Cell): 10 nM
- IC50 ([4]; RCH-ACV cell line, ALL, pre-B Cell): 157 nM
- IC50 ([4]; RCK8, RC-K8 cell line, Non-Hodgkin's Lymphoma (Histiocytic), B Cell): 1750 nM
- IC50 ([4]; REH, Reh cell line, ALL, pre-B Cell): 92 nM
- IC50 ([4]; RL, RL cell line, Non-Hodgkin's Lymphoma, B Cell): 72 nM
- IC50 ([4]; RPMI-6666, RPMI 6666 cell line, Hodgkin's Lymphoma, Lymphoblast): 121 nM
- IC50 ([4]; RS4-11, RS4;11 cell line, ALL, B Cell): 177 nM
- IC50 ([4]; Raji, Raji cell line, Burkitt's Lymphoma, B Cell): 6370 nM
- IC50 ([4]; Rec1, REC-1 cell line, Non-Hodgkin's Lymphoma, B Cell): 721 nM
- IC50 ([4]; SC-1, SC1 cell line, Burkitt's Lymphoma, B Cell): 965 nM
- IC50 ([4]; SEM cell line, ALL, pre-B Cell): 210 nM
- IC50 ([4]; SKO-007, SKO-007 cell line, Multiple Myeloma, B Cell): 4890 nM
- IC50 ([4]; SKW3, SKW-3 cell line, CLL, B Cell): 26 nM
- IC50 ([4]; SR, SR cell line, Non-Hodgkin's Lymphoma, Lymphoblast): 1960 nM
- IC50 ([4]; ST486, ST486 cell line, Burkitt's Lymphoma, B Cell): 745 nM
- IC50 ([4]; SU-DHL10, SU-DHL-10 cell line, Non-Hodgkin's Lymphoma, B Cell): 73 nM
- IC50 ([4]; SU-DHL-4, SU-DHL-4 cell line, Non-Hodgkin's Lymphoma, B Cell): 53 nM
- IC50 ([4]; SU-DHL-5, SU-DHL-5 cell line, Non-Hodgkin's Lymphoma, B Cell): 31 nM
- IC50 ([4]; SU-DHL-6, SU-DHL-6 cell line, Non-Hodgkin's Lymphoma, B Cell): 35 nM
- IC50 ([4]; SU-DHL-16, SU-DHL-16 cell line, Non-Hodgkin's Lymphoma, B Cell): 23 nM
- IC50 ([4]; SUP-B15, SUP B15 cell line, ALL, B Cell): 824 nM
- IC50 ([4]; T-cell, 8E5 cell line, ALL, T Cell): 31 nM
- IC50 ([4]; T-cell, A3 cell line, ALL, T Cell): 38 nM
- IC50 ([4]; T-cell, CEM/C3 cell line, ALL, T Cell): 18 nM
- IC50 ([4]; T-cell, I2.1 cell line, ALL, T Cell): 26 nM
- IC50 ([4]; T-cell, I9.2 cell line, ALL, T Cell): 43 nM
- IC50 ([4]; T-cell, J.Cam.1.6 cell line, ALL, T Cell): 41 nM
- IC50 ([4]; T-cell, J.RT-T3.5 cell line, ALL, T Cell): 30 nM
- IC50 ([4]; T-cell, JR45.01 cell line, ALL, T Cell): 16 nM
- IC50 ([4]; T-cell, LOUCY cell line, ALL, T Cell): 13 nM
- IC50 ([4]; T-cell, MJ cell line, Non-Hodgkin's Lymphoma (CTCL), T Cell): 2880 nM
- IC50 ([4]; T-cell, P116 cell line, ALL, T Cell): 18 nM
- IC50 ([4]; T-cell, SUPTI(VB) cell line, ALL, T Cell): 115 nM
- IC50 ([4]; TO 175.T, TO 175.T cell line, Hodgkin's Lymphoma, Unspecified): 5250 nM
- IC50 ([4]; Toledo, Toledo cell line, Non-Hodgkin's Lymphoma, B Cell): 99 nM
- IC50 ([4]; U-937, U937 cell line, Non-Hodgkin's Lymphoma (Histiocytic), Monocyte): 22 nM
